According to article PMC10508264, “Exploring the antioxidant, antimicrobial, cytotoxic and biothermodynamic properties of novel morpholine derivative bioactive Mn(II), Co(II) and Ni(II) complexes – combined experimental and theoretical measurements towards DNA/BSA/SARS-CoV-2 3CL^Pro” (RSC Medicinal Chemistry, 2023):

Experiments:
Escherichia coli = experiment: Agar disc diffusion, strain A; format: cell-based; parameters: Inhibition%: concentration or dose not given beside the values; conditions: for Diameter of clear zone inhibition: control (DMSO) 6 mm
[1] = test system: Salmonella enterica serovar typhi; experiment: Agar disc diffusion, strain B; format: cell-based; conditions: for Diameter of clear zone inhibition: control 6 mm
[2] = test system: Salmonella enterica serovar typhi; experiment: Agar disc diffusion, strain C; format: cell-based; conditions: for Diameter of clear zone inhibition: control 6 mm
Pseudomonas aeruginosa = experiment: Agar disc diffusion, strain D; format: cell-based; parameters: Inhibition%: concentration or dose not given beside the values; conditions: for Diameter of clear zone inhibition: control 6 mm
Shigella flexneri = experiment: Agar disc diffusion, strain E; format: cell-based; parameters: Inhibition%: concentration or dose not given beside the values; conditions: for Diameter of clear zone inhibition: control 6 mm
Staphylococcus Aureus = experiment: Agar disc diffusion, strain F; format: cell-based; parameters: Inhibition%: concentration or dose not given beside the values; conditions: for Diameter of clear zone inhibition: control 6 mm
Bacillus cereu = experiment: Agar disc diffusion, strain G; format: cell-based; parameters: Inhibition%: concentration or dose not given beside the values; conditions: for Diameter of clear zone inhibition: control 6 mm
Aspergillus niger = experiment: Agar disc diffusion, strain H; format: cell-based; parameters: Inhibition%: concentration or dose not given beside the values; conditions: for Diameter of clear zone inhibition: control 6 mm
Candida albicans = experiment: Agar disc diffusion, strain I; format: cell-based; parameters: Inhibition%: concentration or dose not given beside the values; conditions: for Diameter of clear zone inhibition: control 6 mm
Mucor indicus = experiment: Agar disc diffusion, strain J; format: cell-based; parameters: Inhibition%: concentration or dose not given beside the values; conditions: for Diameter of clear zone inhibition: control 6 mm
[3] = DPPH radical scavenging assay; format: biochemical; conditions: for % Inhibition, DPPH: 517 nm
[4] = Hydroxyl radical scavenging assay; format: biochemical; conditions: for % Inhibition, hydroxyl radical: 230 nm
[5] = Nitric oxide scavenging assay; format: biochemical; conditions: 546 nm
[6] = Superoxide scavenging assay; conditions: 590 nm
CT-DNA [7] = experiment: DNA thermal denaturation / biothermodynamic properties; format: binding; conditions: adduct vs CT-DNA alone
CT-DNA [8] = experiment: DNA binding by viscometric (hydrodynamic) technique
Experimental: The hydrodynamic properties were measured using an Ostwald viscometer with the help of a thermostat (25 ± 0.1 °C). The specific viscosity of DNA was also measured in the presence and absence of the test samples.[13,30]
Generally, when the major/minor groove binding, electrostatic, partial, and non-classical interaction modes are involved between chemical substances and DNA base pairs, the final DNA relative viscosity remains unchanged or undergoes a very negligible change due to reducing the contour length of DNA. When the intercalation binding modes are involved between a chemical substance and DNA base pairs via π–π stacking interactions and hydrophobic forces, an increase in relative viscosity is noted due to a rise in the contour length of DNA. Moreover, for the purpose of observing alterations in the CT-DNA helical structure, the viscosity findings for CT-DNA, various concentrations of chemical substances present, and EtBr were recorded. It was also noted that the absolute viscosity rose consistently along with the incremental concentration of each substance at the fixed DNA concentration. As a result of the strong binding mode of intercalation, the contour length of the double-helix DNA rises.[72] The obtained results are also compared with those of the classical intercalator (EB). The affinity interaction and their slope values were observed from the relative specific viscosity (η/η0)^1/3 plotted as a straight line contrasting [compound]/[DNA] and absolute specific viscosity of DNA in the presence or absence of chemical substances was evaluated using eqn (11) (Table 3). In the experiment, it was clearly noted that the slope values for all samples increased due to the rising binding affinity. The evaluated slopes were in the following sequence: (EB) 1.215 > (2) 0.860 > (3) 0.801 > (1) 0.662 > (HL) 0.490 (Fig. S21 ^† and Table 3). […] Due to the existence of 2,2′-bipyridine and the morpholine-fused aromatic planar systems, compounds can interact with DNA robustly via intercalation. The outcomes agreed with the observed outcomes of electronic absorption spectral characteristics.
11 [drawing 21] where η and η0 represent the specific viscosity of DNA in the presence of the complex and the specific viscosity of DNA alone, t0, tDNA and tcomplex represent the average flow time of the Tris–HCl buffer solution, the average flow time of the DNA alone solution, and the average flow time of DNA interacted with the samples, respectively. Error limit ± 2.5% (P < 0.025). […]
2.2.4. Assessment of DNA affinity by hydrodynamic technique
Hydrodynamic properties were performed using an Ostwald viscometer with the help of a thermostat (25 ± 0.1 °C). The experiment was performed of all samples, including ethidium bromide at various concentrations (20, 40, 60, 80, 100 µM) and each test compound was mixed with the deoxyribonucleic acid solution (100 µM) in the Ostwald viscometer. With a help of digital stopwatch, average flow time was gauged three times for each addition, and the specific viscosity of deoxyribonucleic acid was also measured in the presence and absence of test samples. […]
Also, the emission spectral titration for all compounds was also carried out at a fixed concentration (25 μM) of BSA with an incremental concentration of substances (0–25 µM)

## NCC[C@H](O)C(=O)N[C@@H]1C[C@H](N)[C@@H](O[C@H]2O[C@H](CN)[C@@H](O)[C@H](O)[C@H]2O)[C@H](O)[C@H]1O[C@H]1O[C@H](CO)[C@@H](O)[C@H](N)[C@H]1O [Amikacin, amikacin, reference compound]
Escherichia coli
  Inhibition%: 73%
  Diameter of clear zone inhibition: 22 mm
[1]
  Inhibition%: 73%
  Diameter of clear zone inhibition: 22 mm
[2]
  Inhibition%: 75%
  Diameter of clear zone inhibition: 24 mm
Pseudomonas aeruginosa
  Inhibition%: 70%
  Diameter of clear zone inhibition: 20 mm
Shigella flexneri
  Inhibition%: 70%
  Diameter of clear zone inhibition: 20 mm
Staphylococcus Aureus
  Inhibition%: 70%
  Diameter of clear zone inhibition: 20 mm
Bacillus cereu
  Inhibition%: 70%
  Diameter of clear zone inhibition: 20 mm

## C[C@@H]1[C@H](O)[C@@H](C)/C=C/C=C/C=C/C=C/C=C/C=C/C=C/[C@H](O[C@@H]2O[C@H](C)[C@@H](O)[C@H](N)[C@@H]2O)C[C@@H]2O[C@](O)(C[C@@H](O)C[C@@H](O)[C@H](O)CC[C@@H](O)C[C@@H](O)CC(=O)O[C@H]1C)C[C@H](O)[C@H]2C(=O)O [Amphotericin B, amphotericin B, reference compound]
Aspergillus niger
  Inhibition%: 60%
  Diameter of clear zone inhibition: 15 mm
Candida albicans
  Inhibition%: 65%
  Diameter of clear zone inhibition: 17 mm
Mucor indicus
  Inhibition%: 65%
  Diameter of clear zone inhibition: 17 mm

## O=C1O[C@H]([C@@H](O)CO)C(O)=C1O [Ascorbic acid, ascorbic acid, reference compound]
[3]
  IC50: 80 µM
[3]; 40 µM
  % Inhibition, DPPH: 41.63%
[3]; 80 µM
  % Inhibition, DPPH: 53.74%
[3]; 120 µM
  % Inhibition, DPPH: 58.95%
[3]; 160 µM
  % Inhibition, DPPH: 70.86%
[3]; 200 µM
  % Inhibition, DPPH: 82.75%
[3]; 240 µM
  % Inhibition, DPPH: 85.65%
[4]
  IC50: 160 µM
[4]; 40 µM
  % Inhibition, hydroxyl radical: 20.73%
[4]; 80 µM
  % Inhibition, hydroxyl radical: 36.46%
[4]; 120 µM
  % Inhibition, hydroxyl radical: 47.87%
[4]; 160 µM
  % Inhibition, hydroxyl radical: 59.65%
[4]; 200 µM
  % Inhibition, hydroxyl radical: 65.64%
[4]; 240 µM
  % Inhibition, hydroxyl radical: 78.83%
[5]; 40 µM
  % Inhibition, nitric oxide: 28.55%
[5]; 80 µM
  % Inhibition, nitric oxide: 35.75%
[5]; 120 µM
  % Inhibition, nitric oxide: 43.65%
[5]; 160 µM
  % Inhibition, nitric oxide: 52.68%
[5]; 200 µM
  % Inhibition, nitric oxide: 63.72%
[5]; 240 µM
  % Inhibition, nitric oxide: 72.73%
[6]; 40 µM
  % Inhibition, superoxide: 29.64%
[6]; 80 µM
  % Inhibition, superoxide: 41.72%
[6]; 120 µM
  % Inhibition, superoxide: 55.63%
[6]; 160 µM
  % Inhibition, superoxide: 66.75%
[6]; 200 µM
  % Inhibition, superoxide: 72.55%
[6]; 240 µM
  % Inhibition, superoxide: 84.85%

## CC[n+]1c(-c2ccccc2)c2cc(N)ccc2c2ccc(N)cc21 [EB, ethidium bromide, reference compound]
CT-DNA [7]
  ΔTm: 13 °C
CT-DNA [8]
  Slope of (η/η0)^1/3 vs [compound]/[DNA]: 1.215
CT-DNA [8]; [complex]/[DNA] = 0.2
  Relative specific viscosity (η/η0)^1/3: 1.01
CT-DNA [8]; [complex]/[DNA] = 0.4
  Relative specific viscosity (η/η0)^1/3: 1.35
CT-DNA [8]; [complex]/[DNA] = 0.6
  Relative specific viscosity (η/η0)^1/3: 1.63
CT-DNA [8]; [complex]/[DNA] = 0.8
  Relative specific viscosity (η/η0)^1/3: 1.82
CT-DNA [8]; [complex]/[DNA] = 1.0
  Relative specific viscosity (η/η0)^1/3: 1.99

## CC(=O)N1CCN(c2ccc(OCC3COC(Cn4ccnc4)(c4ccc(Cl)cc4Cl)O3)cc2)CC1 (stereo not shown) [Ketoconazole, ketoconazole, reference compound]
Aspergillus niger
  Inhibition%: 63%
  Diameter of clear zone inhibition: 16 mm
Candida albicans
  Inhibition%: 67%
  Diameter of clear zone inhibition: 18 mm
Mucor indicus
  Inhibition%: 67%
  Diameter of clear zone inhibition: 18 mm

## [H]/N=C(/N)N[C@H]1[C@H](O)[C@@H](O)[C@H](O[C@@H]2O[C@@H](C)[C@](O)(C=O)[C@H]2O[C@@H]2O[C@@H](CO)[C@H](O)[C@@H](O)[C@@H]2NC)[C@@H](N/C(N)=N\[H])[C@@H]1O [Streptomycin, streptomycin, reference compound]
Escherichia coli
  Inhibition%: 75%
  Diameter of clear zone inhibition: 24 mm
[1]
  Inhibition%: 77%
  Diameter of clear zone inhibition: 26 mm
[2]
  Inhibition%: 75%
  Diameter of clear zone inhibition: 24 mm
Pseudomonas aeruginosa
  Inhibition%: 71%
  Diameter of clear zone inhibition: 21 mm
Shigella flexneri
  Inhibition%: 76%
  Diameter of clear zone inhibition: 25 mm
Staphylococcus Aureus
  Inhibition%: 71%
  Diameter of clear zone inhibition: 21 mm
Bacillus cereu
  Inhibition%: 71%
  Diameter of clear zone inhibition: 21 mm
